pEC50: −log10 of the molar value. Calls of active or inactive are those of the source. The rule behind the calls is not given here.
What follows are molecules tested on MDA-MB-231 (assay: Antiproliferative activity against human MDA-MB-231 cells assessed as decrease in viable cells incubated for 5 days by PrestoBlue reagent based glo-max fluorescence assay). Conditions: time 5.0 day.
Format: functional, cell-based

SMILES | Activity
COc1cc(CN2CCc3c(O)cccc3C2)cc(OC)c1OC | Dose-Dependent Effect

These molecules were tested on MDA-MB-231 (assay: Antiproliferative activity against human MDA-MB-231 cells assessed as reduction in cell viability at >=100 uM incubated for 5 days by PrestoBlue reagent based glo-max fluorescence assay). Conditions: time 5.0 day.
Format: functional

SMILES | Activity
Nc1cccc2c1CN(S(=O)(=O)c1ccc([N+](=O)[O-])cc1)CC2 | inactive
Nc1cccc2c1CCN(S(=O)(=O)c1ccc([N+](=O)[O-])cc1)C2 | inactive
Cc1ccc(S(=O)(=O)N2CCc3cccc(N)c3C2)cc1 | inactive
Cc1ccc(S(=O)(=O)N2CCc3c(N)cccc3C2)cc1 | inactive
COc1cc2c(cc1OC)CN(S(=O)(=O)c1ccc([N+](=O)[O-])cc1)CC2 | inactive
Cc1ccc(S(=O)(=O)N2CCc3ccccc3C2)cc1 | inactive
COc1cc2c(cc1OC)CN(S(=O)(=O)c1ccc(C)cc1)CC2 | inactive

Each molecule was assayed on A549 (assay: Antiproliferative activity against human A549 cells assessed as reduction in cell viability incubated for 5 days by PrestoBlue reagent based glo-max fluorescence assay). Conditions: A549, 120 h.
Format: functional

SMILES | pEC50
FC(F)(F)c1ccc(CN2CCc3ccccc3C2)cc1 | 4.46
Brc1ccc(CN2CCc3ccccc3C2)cc1 | 4.42
FC(F)(F)c1ccc(CNc2cccc3c2CN(Cc2ccc(C(F)(F)F)cc2)CC3)cc1 | 4.43
Nc1cccc2c1CCN(Cc1ccc(C(F)(F)F)cc1)C2 | 4.46

Results, then the molecule that gave them:

pEC50 | SMILES
4.42 | Nc1cccc2c1CN(Cc1ccc(Br)cc1)CC2
4.32 | COc1cc(CN2CCc3ccccc3C2)cc(OC)c1OC
4.46 | COc1cc2c(cc1OC)CN(Cc1ccc(C(F)(F)F)cc1)CC2
4.46 | Nc1cccc2c1CN(Cc1ccc(C(F)(F)F)cc1)CC2
5.46 | COc1cc(CN2CCc3c(N)cccc3C2)cc(OC)c1OC
4.14 | COc1cc(CN2CCc3cccc(N)c3C2)cc(OC)c1OC
4.42 | Nc1cccc2c1CCN(Cc1ccc(Br)cc1)C2
4.11 | COc1cc2c(cc1OC)CN(Cc1cc(OC)c(OC)c(OC)c1)CC2
4.42 | COc1cc2c(cc1OC)CN(Cc1ccc(Br)cc1)CC2

The molecules below were run on MDA-MB-231 (assay: Antiproliferative activity against human MDA-MB-231 cells assessed as reduction in cell viability incubated for 5 days pre-incubated with anti-CD44 antibody IM7 by PrestoBlue reagent based glo-max fluorescence assay relative to control). Conditions: time 5 day.
Format: functional

SMILES | Activity [%]
COc1cc(CN2CCc3c(Br)cccc3C2)cc(OC)c1OC | 24
COc1cc(CN2CCc3c(N)cccc3C2)cc(OC)c1OC | 13
COc1cc(CN2CCc3c(O)cccc3C2)cc(OC)c1OC | 21

These molecules were tested on MDA-MB-231 (assay: Antiproliferative activity against human MDA-MB-231 cells assessed as spheroid disaggregation at 100 uM incubated for 5 days by PrestoBlue reagent based microscopic analysis). Conditions: time 5.0 day.
Format: functional, cell-based

SMILES | Activity
COc1cc(CN2CCc3c(O)cccc3C2)cc(OC)c1OC | Active

These molecules were tested against CD44 antigen (Homo sapiens) (UniProt P16070) (assay: Displacement of HA-FITC from CD44 in human MDA-MB-231 cells assessed as decrease in fluorescent intensity at 120 ug/ml incubated for 45 mins by competitive binding assay based flow cytometric analysis). Conditions: dose 120.0 µg/ml.
Chain of CD44 antigen (Homo sapiens) (P16070 whole entry): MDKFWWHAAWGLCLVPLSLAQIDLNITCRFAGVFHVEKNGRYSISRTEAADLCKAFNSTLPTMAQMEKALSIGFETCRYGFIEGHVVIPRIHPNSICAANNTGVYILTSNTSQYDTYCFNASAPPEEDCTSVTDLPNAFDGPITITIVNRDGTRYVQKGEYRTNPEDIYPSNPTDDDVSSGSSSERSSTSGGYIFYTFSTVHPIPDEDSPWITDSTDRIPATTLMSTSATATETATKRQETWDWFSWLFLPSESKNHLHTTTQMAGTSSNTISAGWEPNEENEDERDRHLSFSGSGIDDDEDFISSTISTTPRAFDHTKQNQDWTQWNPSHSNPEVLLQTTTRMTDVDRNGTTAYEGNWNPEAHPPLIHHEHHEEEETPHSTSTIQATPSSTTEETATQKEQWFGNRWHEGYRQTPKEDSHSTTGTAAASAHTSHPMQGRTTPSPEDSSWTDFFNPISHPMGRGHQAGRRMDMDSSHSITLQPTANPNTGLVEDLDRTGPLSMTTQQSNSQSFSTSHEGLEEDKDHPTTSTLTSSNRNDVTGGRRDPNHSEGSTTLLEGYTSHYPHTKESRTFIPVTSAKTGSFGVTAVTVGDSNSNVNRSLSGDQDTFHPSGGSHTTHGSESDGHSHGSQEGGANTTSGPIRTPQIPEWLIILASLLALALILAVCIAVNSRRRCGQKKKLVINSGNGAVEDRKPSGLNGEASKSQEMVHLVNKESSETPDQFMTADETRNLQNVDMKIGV
Format: cell-based

Activity | SMILES
Active | COc1cc(CN2CCc3c(Br)cccc3C2)cc(OC)c1OC
Active | COc1cc(CN2CCc3c(N)cccc3C2)cc(OC)c1OC
Active | COc1cc(CN2CCc3c(O)cccc3C2)cc(OC)c1OC

Each molecule was assayed on A549 (assay: Antiproliferative activity against human A549 cells assessed as reduction in cell viability at >=100 uM incubated for 5 days by PrestoBlue reagent based glo-max fluorescence assay). Conditions: time 5.0 day.
Format: functional

SMILES | Activity
Nc1cccc2c1CN(S(=O)(=O)c1ccc([N+](=O)[O-])cc1)CC2 | inactive
Nc1cccc2c1CCN(S(=O)(=O)c1ccc([N+](=O)[O-])cc1)C2 | inactive
Cc1ccc(S(=O)(=O)N2CCc3cccc(N)c3C2)cc1 | inactive
Cc1ccc(S(=O)(=O)N2CCc3c(N)cccc3C2)cc1 | inactive
COc1cc2c(cc1OC)CN(S(=O)(=O)c1ccc([N+](=O)[O-])cc1)CC2 | inactive
Cc1ccc(S(=O)(=O)N2CCc3ccccc3C2)cc1 | inactive
O=[N+]([O-])c1ccc(S(=O)(=O)N2CCc3ccccc3C2)cc1 | inactive
COc1cc2c(cc1OC)CN(S(=O)(=O)c1ccc(C)cc1)CC2 | inactive

What follows are molecules tested on MDA-MB-231 (assay: Antiproliferative activity against human MDA-MB-231 cells assessed as change in spheroid integrity at 1 uM incubated for 5 days by PrestoBlue reagent based microscopic analysis). Conditions: time 5.0 day.
Format: functional, cell-based

SMILES | Activity
COc1cc(CN2CCc3c(O)cccc3C2)cc(OC)c1OC | Active

These molecules were tested on MDA-MB-231 (assay: Antiproliferative activity against human MDA-MB-231 cells assessed as reduction in cell viability incubated for 5 days by PrestoBlue reagent based glo-max fluorescence assay). Conditions: MDA-MB-231, 120 h.
Format: functional

SMILES | pEC50
FC(F)(F)c1ccc(CN2CCc3ccccc3C2)cc1 | 4.28
Brc1ccc(CN2CCc3ccccc3C2)cc1 | 4.11
FC(F)(F)c1ccc(CNc2cccc3c2CN(Cc2ccc(C(F)(F)F)cc2)CC3)cc1 | 4.50
O=[N+]([O-])c1ccc(S(=O)(=O)N2CCc3ccccc3C2)cc1 | 4.21
CC(=O)CCN1CCc2ccccc2C1 | 5.10
Nc1cccc2c1CCN(Cc1ccc(C(F)(F)F)cc1)C2 | 4.28

Continued, values first:

pEC50 | SMILES
4.11 | Nc1cccc2c1CN(Cc1ccc(Br)cc1)CC2
5.75 | COc1cc(CN2CCc3c(Br)cccc3C2)cc(OC)c1OC
4.70 | COc1cc(CN2CCc3ccccc3C2)cc(OC)c1OC
4.28 | COc1cc2c(cc1OC)CN(Cc1ccc(C(F)(F)F)cc1)CC2
4.28 | Nc1cccc2c1CN(Cc1ccc(C(F)(F)F)cc1)CC2
5.64 | COc1cc(CN2CCc3c(N)cccc3C2)cc(OC)c1OC
4.24 | COc1cc(CN2CCc3cccc(N)c3C2)cc(OC)c1OC
6.23 | COc1cc(CN2CCc3c(O)cccc3C2)cc(OC)c1OC
4.11 | Nc1cccc2c1CCN(Cc1ccc(Br)cc1)C2
4.15 | COc1cc2c(cc1OC)CN(Cc1cc(OC)c(OC)c(OC)c1)CC2
4.11 | COc1cc2c(cc1OC)CN(Cc1ccc(Br)cc1)CC2

These molecules were tested on MDA-MB-231 (assay: Antiproliferative activity against human MDA-MB-231 cells assessed as increase in dead cell in spheroid at 1 uM incubated for 5 days by PrestoBlue reagent based microscopic analysis). Conditions: time 5.0 day.
Format: functional

SMILES | Activity
COc1cc(CN2CCc3c(O)cccc3C2)cc(OC)c1OC | Active

What follows are molecules tested on MDA-MB-231 (assay: Antiproliferative activity against human MDA-MB-231 cells assessed as fold change in cell viability incubated for 5 days by PrestoBlue reagent based glo-max fluorescence assay). Conditions: time 5 day.
Format: functional

SMILES | fold change (FC)
COc1cc(CN2CCc3c(Br)cccc3C2)cc(OC)c1OC | 1.3
COc1cc(CN2CCc3c(O)cccc3C2)cc(OC)c1OC | 4

Each molecule was assayed on MDA-MB-231 (assay: Antiproliferative activity against human MDA-MB-231 cells assessed as reduction in cell viability at <=70 uM incubated for 5 days by PrestoBlue reagent based glo-max fluorescence assay). Conditions: time 5.0 day.
Format: functional

SMILES | Activity
COc1cc(CN2CCc3ccccc3C2)cc(OC)c1OC | Active
COc1cc(CN2CCc3c(N)cccc3C2)cc(OC)c1OC | Active
COc1cc(CN2CCc3cccc(N)c3C2)cc(OC)c1OC | Active
COc1cc2c(cc1OC)CN(Cc1cc(OC)c(OC)c(OC)c1)CC2 | Active

— ChEMBL document CHEMBL5620417, “N-aryltetrahydroisoquinoline derivatives as HA-CD44 interaction inhibitors: Design, synthesis, computational studies, and antitumor effect” (Eur J Med Chem, 2023)
